Data published in ChEMBL document CHEMBL3400103, “Synthesis and biological evaluation of novel HIV-1 protease inhibitors using tertiary amine as P2-ligands” (Bioorg Med Chem Lett, 2015).

Molecular target: Protease (Human immunodeficiency virus 1, UniProt Q9YQ12)
Assay: Inhibition of HIV1 protease expressed in Escherichia coli incubated for 20 to 30 mins at room temperature using (Arg-Glu(EDANS)-Ser-Gln-Asn-Tyr-Pro-Ile-Val-Gln-Lys(DABCYL)-Arg) substrate by FRET method

Chain of Protease (Q9YQ12 whole entry): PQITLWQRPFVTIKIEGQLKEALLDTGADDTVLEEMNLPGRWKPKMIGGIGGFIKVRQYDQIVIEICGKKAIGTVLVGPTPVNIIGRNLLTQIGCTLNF

| IC50 | Compound |
| --- | --- |
| 1380 nM | COc1ccc(S(=O)(=O)N(CC(C)C)C[C@@H](O)[C@H](Cc2ccccc2)NC(=O)CN(CC(=O)N2CCOCC2)c2cccc(O)c2C)cc1 |
| 490 nM | Cc1cccc(C)c1N(CC(=O)N[C@@H](Cc1ccccc1)[C@@H](O)CN(CC(C)C)S(=O)(=O)c1ccc(N)cc1)CC(=O)N(C)C |
| 1210 nM | Cc1c(O)cccc1N(CC(=O)N[C@@H](Cc1ccccc1)[C@H](O)CN(CC(C)C)S(=O)(=O)c1ccc(CO)cc1)CC(=O)N1CCOCC1 |
| 370 nM | COc1ccc(N(CC(=O)N[C@@H](Cc2ccccc2)[C@H](O)CN(CC(C)C)S(=O)(=O)c2ccc(CO)cc2)CC(=O)N(C)C)cc1 |
| 590 nM | Cc1c(O)cccc1N(CC(=O)N[C@@H](Cc1ccccc1)[C@H](O)CN(CC(C)C)S(=O)(=O)c1ccc(N)cc1)CC(=O)N(C)C |
| 5340 nM | COc1ccc(N(CC(=O)N[C@@H](Cc2ccccc2)[C@@H](O)CN(CC(C)C)S(=O)(=O)c2ccc(CO)cc2)CC(=O)N(C)C)cc1 |
| 6960 nM | COc1ccc(N(CC(=O)N[C@@H](Cc2ccccc2)[C@@H](O)CN(CC(C)C)S(=O)(=O)c2ccc(N)cc2)CC(=O)N(C)C)cc1 |
| 5870 nM | Cc1cccc(C)c1N(CC(=O)N[C@@H](Cc1ccccc1)[C@@H](O)CN(CC(C)C)S(=O)(=O)c1ccc([N+](=O)[O-])cc1)CC(=O)N1CCOCC1 |
| > 20000 nM | COc1ccc(S(=O)(=O)N(CC(C)C)C[C@H](O)[C@H](Cc2ccccc2)NC(=O)CN(CC(=O)N(C)C)c2c(C)cccc2C)cc1 |
| 6120 nM | Cc1c(O)cccc1N(CC(=O)N[C@@H](Cc1ccccc1)[C@@H](O)CN(CC(C)C)S(=O)(=O)c1ccc(CO)cc1)CC(=O)N1CCOCC1 |
| 290 nM | Cc1cccc(C)c1N(CC(=O)N[C@@H](Cc1ccccc1)[C@H](O)CN(CC(C)C)S(=O)(=O)c1ccc([N+](=O)[O-])cc1)CC(=O)N(C)C |
| 7410 nM | Cc1c(O)cccc1N(CC(=O)N[C@@H](Cc1ccccc1)[C@@H](O)CN(CC(C)C)S(=O)(=O)c1ccc([N+](=O)[O-])cc1)CC(=O)N(C)C |
| 19200 nM | COc1ccc(N(CC(=O)N[C@@H](Cc2ccccc2)[C@@H](O)CN(CC(C)C)S(=O)(=O)c2ccc([N+](=O)[O-])cc2)CC(=O)N2CCOCC2)cc1 |
| > 20000 nM | COc1ccc(S(=O)(=O)N(CC(C)C)C[C@H](O)[C@H](Cc2ccccc2)NC(=O)CN(CC(=O)N2CCOCC2)c2cccc(O)c2C)cc1 |
| > 20000 nM | Cc1c(O)cccc1N(CC(=O)N[C@@H](Cc1ccccc1)[C@@H](O)CN(CC(C)C)S(=O)(=O)c1ccc([N+](=O)[O-])cc1)CC(=O)N1CCOCC1 |
| 6670 nM | Cc1c(O)cccc1N(CC(=O)N[C@@H](Cc1ccccc1)[C@H](O)CN(CC(C)C)S(=O)(=O)c1ccc([N+](=O)[O-])cc1)CC(=O)N1CCOCC1 |
| 5780 nM | COc1ccc(S(=O)(=O)N(CC(C)C)C[C@H](O)[C@H](Cc2ccccc2)NC(=O)CN(CC(=O)N(C)C)c2cccc(O)c2C)cc1 |
| > 20000 nM | COc1ccc(N(CC(=O)N[C@@H](Cc2ccccc2)[C@@H](O)CN(CC(C)C)S(=O)(=O)c2ccc([N+](=O)[O-])cc2)CC(=O)N(C)C)cc1 |
| 16100 nM | Cc1c(O)cccc1N(CC(=O)N[C@@H](Cc1ccccc1)[C@@H](O)CN(CC(C)C)S(=O)(=O)c1ccc(N)cc1)CC(=O)N1CCOCC1 |
| 5920 nM | Cc1c(O)cccc1N(CC(=O)N[C@@H](Cc1ccccc1)[C@@H](O)CN(CC(C)C)S(=O)(=O)c1ccc(N)cc1)CC(=O)N(C)C |
| 180 nM | COc1ccc(S(=O)(=O)N(CC(C)C)C[C@@H](O)[C@H](Cc2ccccc2)NC(=O)CN(CC(=O)N(C)C)c2c(C)cccc2C)cc1 |
| > 20000 nM | COc1ccc(N(CC(=O)N[C@@H](Cc2ccccc2)[C@@H](O)CN(CC(C)C)S(=O)(=O)c2ccc(OC)cc2)CC(=O)N(C)C)cc1 |
| > 20000 nM | COc1ccc(N(CC(=O)N[C@@H](Cc2ccccc2)[C@@H](O)CN(CC(C)C)S(=O)(=O)c2ccc(CO)cc2)CC(=O)N2CCOCC2)cc1 |
| 220 nM | COc1ccc(N(CC(=O)N[C@@H](Cc2ccccc2)[C@H](O)CN(CC(C)C)S(=O)(=O)c2ccc(OC)cc2)CC(=O)N(C)C)cc1 |

| IC50 | Compound |
| --- | --- |
| 150 nM | Cc1c(O)cccc1N(CC(=O)N[C@@H](Cc1ccccc1)[C@H](O)CN(CC(C)C)S(=O)(=O)c1ccc(CO)cc1)CC(=O)N(C)C |
| 2590 nM | Cc1cccc(C)c1N(CC(=O)N[C@@H](Cc1ccccc1)[C@@H](O)CN(CC(C)C)S(=O)(=O)c1ccc(N)cc1)CC(=O)N1CCOCC1 |
| 1360 nM | COc1ccc(N(CC(=O)N[C@@H](Cc2ccccc2)[C@H](O)CN(CC(C)C)S(=O)(=O)c2ccc(N)cc2)CC(=O)N2CCOCC2)cc1 |
| 64 nM | Cc1cccc(C)c1N(CC(=O)N[C@@H](Cc1ccccc1)[C@H](O)CN(CC(C)C)S(=O)(=O)c1ccc(N)cc1)CC(=O)N1CCOCC1 |
| 210 nM | COc1ccc(N(CC(=O)N[C@@H](Cc2ccccc2)[C@H](O)CN(CC(C)C)S(=O)(=O)c2ccc([N+](=O)[O-])cc2)CC(=O)N(C)C)cc1 |
| 6810 nM | COc1ccc(N(CC(=O)N[C@@H](Cc2ccccc2)[C@@H](O)CN(CC(C)C)S(=O)(=O)c2ccc(N)cc2)CC(=O)N2CCOCC2)cc1 |
| 8650 nM | COc1ccc(S(=O)(=O)N(CC(C)C)C[C@H](O)[C@H](Cc2ccccc2)NC(=O)CN(CC(=O)N2CCOCC2)c2c(C)cccc2C)cc1 |
| 8940 nM | Cc1cccc(C)c1N(CC(=O)N[C@@H](Cc1ccccc1)[C@@H](O)CN(CC(C)C)S(=O)(=O)c1ccc(CO)cc1)CC(=O)N1CCOCC1 |
| 15 nM | COc1ccc(S(=O)(=O)N(CC(C)C)C[C@@H](O)[C@H](Cc2ccccc2)NC(=O)CN(CC(=O)N2CCOCC2)c2c(C)cccc2C)cc1 |
| > 20000 nM | Cc1c(O)cccc1N(CC(=O)N[C@@H](Cc1ccccc1)[C@@H](O)CN(CC(C)C)S(=O)(=O)c1ccc(CO)cc1)CC(=O)N(C)C |
| 2730 nM | Cc1c(O)cccc1N(CC(=O)N[C@@H](Cc1ccccc1)[C@H](O)CN(CC(C)C)S(=O)(=O)c1ccc(N)cc1)CC(=O)N1CCOCC1 |
| 610 nM | Cc1c(O)cccc1N(CC(=O)N[C@@H](Cc1ccccc1)[C@H](O)CN(CC(C)C)S(=O)(=O)c1ccc([N+](=O)[O-])cc1)CC(=O)N(C)C |
| 540 nM | COc1ccc(S(=O)(=O)N(CC(C)C)C[C@@H](O)[C@H](Cc2ccccc2)NC(=O)CN(CC(=O)N(C)C)c2cccc(O)c2C)cc1 |
| 73 nM | Cc1cccc(C)c1N(CC(=O)N[C@@H](Cc1ccccc1)[C@H](O)CN(CC(C)C)S(=O)(=O)c1ccc(CO)cc1)CC(=O)N1CCOCC1 |
| 5880 nM | Cc1cccc(C)c1N(CC(=O)N[C@@H](Cc1ccccc1)[C@@H](O)CN(CC(C)C)S(=O)(=O)c1ccc([N+](=O)[O-])cc1)CC(=O)N(C)C |
| 290 nM | COc1ccc(N(CC(=O)N[C@@H](Cc2ccccc2)[C@H](O)CN(CC(C)C)S(=O)(=O)c2ccc(OC)cc2)CC(=O)N2CCOCC2)cc1 |
| 890 nM | COc1ccc(N(CC(=O)N[C@@H](Cc2ccccc2)[C@H](O)CN(CC(C)C)S(=O)(=O)c2ccc(CO)cc2)CC(=O)N2CCOCC2)cc1 |
| 73 nM | Cc1cccc(C)c1N(CC(=O)N[C@@H](Cc1ccccc1)[C@H](O)CN(CC(C)C)S(=O)(=O)c1ccc([N+](=O)[O-])cc1)CC(=O)N1CCOCC1 |
| 1360 nM | Cc1cccc(C)c1N(CC(=O)N[C@@H](Cc1ccccc1)[C@H](O)CN(CC(C)C)S(=O)(=O)c1ccc(N)cc1)CC(=O)N(C)C |
| 1020 nM | COc1ccc(N(CC(=O)N[C@@H](Cc2ccccc2)[C@H](O)CN(CC(C)C)S(=O)(=O)c2ccc([N+](=O)[O-])cc2)CC(=O)N2CCOCC2)cc1 |
| 17300 nM | Cc1cccc(C)c1N(CC(=O)N[C@@H](Cc1ccccc1)[C@@H](O)CN(CC(C)C)S(=O)(=O)c1ccc(CO)cc1)CC(=O)N(C)C |
| 290 nM | Cc1cccc(C)c1N(CC(=O)N[C@@H](Cc1ccccc1)[C@H](O)CN(CC(C)C)S(=O)(=O)c1ccc(CO)cc1)CC(=O)N(C)C |
| 140 nM | COc1ccc(N(CC(=O)N[C@@H](Cc2ccccc2)[C@H](O)CN(CC(C)C)S(=O)(=O)c2ccc(N)cc2)CC(=O)N(C)C)cc1 |
| > 20000 nM | COc1ccc(N(CC(=O)N[C@@H](Cc2ccccc2)[C@@H](O)CN(CC(C)C)S(=O)(=O)c2ccc(OC)cc2)CC(=O)N2CCOCC2)cc1 |
